Among the data in the supplement of paper PMC10307832 are relative viability values, retold here.

Holding throughout (assay): relative viability (nuclei count vs DMSO), 5 days (fraction); higher = more cells survive
Compound in the experiment “GW-2580 + Linsitinib”: COC1=CC=C(C=C1)COC2=C(C=C(C=C2)CC3=CN=C(N=C3N)N)OC [GW-2580] + C[C@]1(O)C[C@@H](c2nc(-c3ccc4ccc(-c5ccccc5)nc4c3)c3c(N)nccn32)C1 [Linsitinib] (partner 1 µM)
The essentials:
(§1)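 Lung cancer cell lines in 1536-well plates were dosed by pin tool the day after seeding, either with one drug alone or with a fixed anchor-drug dose plus five library-drug doses (not always all listed) in √10 steps. After 5 days, cells were fixed and their nuclei stained in one step (final 0.05% Triton X-100, 1% formaldehyde, 1 ug/ml Hoechst), then counted on 4× images. Relative viability is the nuclei count in treated wells divided by that in vehicle wells. Values are medians of duplicate plates.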

Compound in the experiment “GW-2580 + Alpelisib”: COC1=CC=C(C=C1)COC2=C(C=C(C=C2)CC3=CN=C(N=C3N)N)OC [GW-2580] + Cc1nc(NC(=O)N2CCC[C@H]2C(N)=O)sc1-c1ccnc(C(C)(C)C(F)(F)F)c1 [Alpelisib] (partner 2 µM)
The essentials: as §1

Compound in the experiment “GW-2580 + Dasatinib”: COC1=CC=C(C=C1)COC2=C(C=C(C=C2)CC3=CN=C(N=C3N)N)OC [GW-2580] + Cc1nc(Nc2ncc(C(=O)Nc3c(C)cccc3Cl)s2)cc(N2CCN(CCO)CC2)n1 [Dasatinib] (partner 0.075 µM)
The method, boiled down:
as §1

Compound in the experiment “GW-2580 + Pemetrexed”: COC1=CC=C(C=C1)COC2=C(C=C(C=C2)CC3=CN=C(N=C3N)N)OC [GW-2580] + Nc1nc2[nH]cc(CCc3ccc(C(=O)N[C@@H](CCC(=O)O)C(=O)O)cc3)c2c(=O)[nH]1 [Pemetrexed] (partner 0.2 µM)
The essentials:
as §1

Compound in the experiment “Fedratinib + Lapatinib”: Cc1cnc(Nc2ccc(OCCN3CCCC3)cc2)nc1Nc1cccc(S(=O)(=O)NC(C)(C)C)c1 [Fedratinib] + CS(=O)(=O)CCNCc1ccc(-c2ccc3ncnc(Nc4ccc(OCc5cccc(F)c5)c(Cl)c4)c3c2)o1 [Lapatinib] (partner 2 µM)
The method, boiled down: as §1

Regarding NCI-H1975, the relative viability with GW-2580 + Linsitinib (first compound 0.08 µM) was 1.19; with GW-2580 + Linsitinib (first compound 0.8 µM) it was 0.931; in the experiment with GW-2580 + Linsitinib (first compound 2.53 µM) it was 0.89; with GW-2580 + Linsitinib (first compound 8 µM), 0.875; in the experiment with GW-2580 + Alpelisib (first compound 0.08 µM), 0.693; in the experiment with GW-2580 + Alpelisib (first compound 0.8 µM), 0.778. The relative viability was 0.647 in the experiment with GW-2580 + Alpelisib (first compound 2.53 µM); 0.596 with GW-2580 + Alpelisib (first compound 8 µM); 0.406 in the experiment with GW-2580 + Dasatinib (first compound 0.08 µM); 0.388 with GW-2580 + Dasatinib (first compound 0.8 µM); 0.379 with GW-2580 + Dasatinib (first compound 2.53 µM); 0.315 in the experiment with GW-2580 + Dasatinib (first compound 8 µM). In addition, the relative viability with GW-2580 + Pemetrexed (first compound 0.08 µM) came to 0.311; with GW-2580 + Pemetrexed (first compound 0.8 µM), 0.309; with GW-2580 + Pemetrexed (first compound 2.53 µM), 0.323; with GW-2580 + Pemetrexed (first compound 8 µM), 0.309; in the experiment with Fedratinib + Lapatinib (first compound 0.1 µM) it was 1.02; with Fedratinib + Lapatinib (first compound 0.3162 µM), 0.922. Moreover, the relative viability with Fedratinib + Lapatinib (first compound 1 µM) is 0.163.

For the cell line NCI-H1944, the relative viability came to 1.32 with GW-2580 + Linsitinib (first compound 0.08 µM); 1.4 in the experiment with GW-2580 + Linsitinib (first compound 0.8 µM); 1.27 with GW-2580 + Linsitinib (first compound 2.53 µM); 1.07 in the experiment with GW-2580 + Linsitinib (first compound 8 µM); 0.826 with GW-2580 + Alpelisib (first compound 0.08 µM); 0.94 with GW-2580 + Alpelisib (first compound 0.8 µM). The relative viability turned out to be 0.828 in the experiment with GW-2580 + Alpelisib (first compound 2.53 µM); 0.759 in the experiment with GW-2580 + Alpelisib (first compound 8 µM); 0.207 with GW-2580 + Dasatinib (first compound 0.08 µM); 0.224 with GW-2580 + Dasatinib (first compound 0.8 µM); 0.203 in the experiment with GW-2580 + Dasatinib (first compound 2.53 µM); 0.212 in the experiment with GW-2580 + Dasatinib (first compound 8 µM). Also, the relative viability came out at 0.621 with GW-2580 + Pemetrexed (first compound 0.08 µM); 0.638 with GW-2580 + Pemetrexed (first compound 0.8 µM); 0.556 in the experiment with GW-2580 + Pemetrexed (first compound 2.53 µM); 0.512 with GW-2580 + Pemetrexed (first compound 8 µM); 0.816 with Fedratinib + Lapatinib (first compound 0.1 µM); 0.803 with Fedratinib + Lapatinib (first compound 0.3162 µM). Further, the relative viability in the experiment with Fedratinib + Lapatinib (first compound 1 µM) stood at 0.615.

With LU99A, the relative viability in the experiment with GW-2580 + Linsitinib (first compound 0.08 µM) came to 0.749; with GW-2580 + Linsitinib (first compound 0.8 µM) it was 0.57; with GW-2580 + Linsitinib (first compound 2.53 µM) it was 0.427; in the experiment with GW-2580 + Linsitinib (first compound 8 µM), 0.517; in the experiment with GW-2580 + Alpelisib (first compound 0.08 µM), 0.496; in the experiment with GW-2580 + Alpelisib (first compound 0.8 µM) it was 0.522. Also, the relative viability was 0.354 in the experiment with GW-2580 + Alpelisib (first compound 2.53 µM); 0.528 with GW-2580 + Alpelisib (first compound 8 µM); 0.609 with GW-2580 + Dasatinib (first compound 0.08 µM); 0.651 with GW-2580 + Dasatinib (first compound 0.8 µM); 0.472 with GW-2580 + Dasatinib (first compound 2.53 µM); 0.465 in the experiment with GW-2580 + Dasatinib (first compound 8 µM). Moreover, the relative viability was 0.246 in the experiment with GW-2580 + Pemetrexed (first compound 0.08 µM); 0.176 with GW-2580 + Pemetrexed (first compound 0.8 µM); 0.193 with GW-2580 + Pemetrexed (first compound 2.53 µM); 0.17 with GW-2580 + Pemetrexed (first compound 8 µM); 1.08 in the experiment with Fedratinib + Lapatinib (first compound 0.1 µM); 0.988 with Fedratinib + Lapatinib (first compound 0.3162 µM). In addition, in the experiment with Fedratinib + Lapatinib (first compound 1 µM), the relative viability turned out to be 0.321.

Take SW 1573: the relative viability with GW-2580 + Linsitinib (first compound 0.08 µM) was found to be 0.744; in the experiment with GW-2580 + Linsitinib (first compound 0.8 µM) it was 0.806; with GW-2580 + Linsitinib (first compound 2.53 µM), 0.713; in the experiment with GW-2580 + Linsitinib (first compound 8 µM) it was 0.66; in the experiment with GW-2580 + Alpelisib (first compound 0.08 µM) it was 0.841; in the experiment with GW-2580 + Alpelisib (first compound 0.8 µM), 0.797. For the same cell line, the relative viability is 0.698 with GW-2580 + Alpelisib (first compound 2.53 µM); 0.674 with GW-2580 + Alpelisib (first compound 8 µM); 0.464 in the experiment with GW-2580 + Dasatinib (first compound 0.08 µM); 0.45 with GW-2580 + Dasatinib (first compound 0.8 µM); 0.452 with GW-2580 + Dasatinib (first compound 2.53 µM); 0.407 with GW-2580 + Dasatinib (first compound 8 µM). For the same cell line, the relative viability with GW-2580 + Pemetrexed (first compound 0.08 µM) was 0.908; with GW-2580 + Pemetrexed (first compound 0.8 µM) it was 0.883; with GW-2580 + Pemetrexed (first compound 2.53 µM) it was 0.861; in the experiment with GW-2580 + Pemetrexed (first compound 8 µM), 0.639; with Fedratinib + Lapatinib (first compound 0.1 µM), 1.13; with Fedratinib + Lapatinib (first compound 0.3162 µM), 1.15. For the same cell line, the relative viability with Fedratinib + Lapatinib (first compound 1 µM) was found to be 1.01.

For the cell line NCI-H2347, the relative viability with GW-2580 + Linsitinib (first compound 0.08 µM) turned out to be 0.996; with GW-2580 + Linsitinib (first compound 0.8 µM), 0.864; with GW-2580 + Linsitinib (first compound 2.53 µM), 0.954; with GW-2580 + Linsitinib (first compound 8 µM), 0.884; with GW-2580 + Alpelisib (first compound 0.08 µM) it was 1.02; with GW-2580 + Alpelisib (first compound 0.8 µM), 0.968. For the same cell line, the relative viability is 0.915 with GW-2580 + Alpelisib (first compound 2.53 µM); 1.05 with GW-2580 + Alpelisib (first compound 8 µM); 0.341 with GW-2580 + Dasatinib (first compound 0.08 µM); 0.294 in the experiment with GW-2580 + Dasatinib (first compound 0.8 µM); 0.244 with GW-2580 + Dasatinib (first compound 2.53 µM); 0.271 in the experiment with GW-2580 + Dasatinib (first compound 8 µM). In addition, the relative viability with GW-2580 + Pemetrexed (first compound 0.08 µM) was 0.468; with GW-2580 + Pemetrexed (first compound 0.8 µM), 0.473; with GW-2580 + Pemetrexed (first compound 2.53 µM), 0.464; in the experiment with GW-2580 + Pemetrexed (first compound 8 µM), 0.446; with Fedratinib + Lapatinib (first compound 0.1 µM), 1.03; in the experiment with Fedratinib + Lapatinib (first compound 0.3162 µM) it was 0.998. Moreover, the relative viability with Fedratinib + Lapatinib (first compound 1 µM) is 0.882.

Take NCI-H2009: the relative viability with GW-2580 + Linsitinib (first compound 0.08 µM) was found to be 1.14; with GW-2580 + Linsitinib (first compound 0.8 µM) it was 1.21; with GW-2580 + Linsitinib (first compound 2.53 µM), 1.18; with GW-2580 + Linsitinib (first compound 8 µM), 1.06; in the experiment with GW-2580 + Alpelisib (first compound 0.08 µM), 1.16; with GW-2580 + Alpelisib (first compound 0.8 µM), 1.17. The relative viability was 1.08 with GW-2580 + Alpelisib (first compound 2.53 µM); 1.11 in the experiment with GW-2580 + Alpelisib (first compound 8 µM); 0.319 with GW-2580 + Dasatinib (first compound 0.08 µM); 0.305 with GW-2580 + Dasatinib (first compound 0.8 µM); 0.299 with GW-2580 + Dasatinib (first compound 2.53 µM); 0.27 in the experiment with GW-2580 + Dasatinib (first compound 8 µM). Moreover, the relative viability was determined as 1.06 with GW-2580 + Pemetrexed (first compound 0.08 µM); 1.11 in the experiment with GW-2580 + Pemetrexed (first compound 0.8 µM); 0.945 with GW-2580 + Pemetrexed (first compound 2.53 µM); 0.843 in the experiment with GW-2580 + Pemetrexed (first compound 8 µM); 0.915 with Fedratinib + Lapatinib (first compound 0.1 µM); 1.02 with Fedratinib + Lapatinib (first compound 0.3162 µM). Further, the relative viability with Fedratinib + Lapatinib (first compound 1 µM) was determined as 0.171.

With HCC-15, the relative viability with GW-2580 + Linsitinib (first compound 0.08 µM) turned out to be 0.989; with GW-2580 + Linsitinib (first compound 0.8 µM), 1.02; with GW-2580 + Linsitinib (first compound 2.53 µM), 0.834; with GW-2580 + Linsitinib (first compound 8 µM) it was 0.785; with GW-2580 + Alpelisib (first compound 0.08 µM), 0.915; with GW-2580 + Alpelisib (first compound 0.8 µM), 0.894. Further, the relative viability with GW-2580 + Alpelisib (first compound 2.53 µM) was determined as 0.87; in the experiment with GW-2580 + Alpelisib (first compound 8 µM), 0.82; in the experiment with GW-2580 + Dasatinib (first compound 0.08 µM) it was 0.639; in the experiment with GW-2580 + Dasatinib (first compound 0.8 µM) it was 0.73; with GW-2580 + Dasatinib (first compound 2.53 µM) it was 0.629; with GW-2580 + Dasatinib (first compound 8 µM), 0.578. Further, the relative viability with GW-2580 + Pemetrexed (first compound 0.08 µM) came out at 0.228; with GW-2580 + Pemetrexed (first compound 0.8 µM) it was 0.235; with GW-2580 + Pemetrexed (first compound 2.53 µM), 0.235; with GW-2580 + Pemetrexed (first compound 8 µM), 0.251; with Fedratinib + Lapatinib (first compound 0.1 µM), 0.879; in the experiment with Fedratinib + Lapatinib (first compound 0.3162 µM), 0.876. Also, in the experiment with Fedratinib + Lapatinib (first compound 1 µM), the relative viability turned out to be 0.446.
